What was measured:
Assay in all cases: cells
A549/ATCC = conditions: Homo sapiens, A549, 48 h; for CC50: read-out: LC50
HL-60(TB) = conditions: Homo sapiens, HL-60, 48 h; for CC50: read-out: LC50
T-47D = conditions: Homo sapiens, T47D, 48 h; for CC50: read-out: LC50
U251 = conditions: Homo sapiens, U-251, 48 h; for GI50: U251, 48 h; for CC50: read-out: LC50
NCI-H460 = conditions: Homo sapiens, NCI-H460, 48 h; for CC50: read-out: LC50
MOLT-4 = conditions: Homo sapiens, MOLT-4, 48 h; for CC50: read-out: LC50
HS 578T = conditions: Homo sapiens, 48 h; for CC50: read-out: LC50
SK-MEL-2 = conditions: Homo sapiens, SK-MEL-2, 48 h; for CC50: read-out: LC50
SF-268 = conditions: Homo sapiens, SF-268, 48 h; for CC50: read-out: LC50
786-0 = conditions: Homo sapiens, 786-0, 48 h; for CC50: read-out: LC50
HCT-116 = conditions: Homo sapiens, HCT-116, 48 h; for CC50: read-out: LC50
NCI-H522 = conditions: Homo sapiens, NCI-H522, 48 h; for CC50: read-out: LC50
SNB-75 = conditions: Homo sapiens, SNB-75, 48 h; for CC50: read-out: LC50
K-562 = conditions: Homo sapiens, K562, 48 h; for GI50: K-562, 48 h; for CC50: read-out: LC50
SF-539 = conditions: Homo sapiens, SF-539, 48 h; for CC50: read-out: LC50, SF-539, 48 h
MDA-MB-231/ATCC = conditions: Homo sapiens, MDA-MB-231, 48 h; for CC50: read-out: LC50
SN12C = conditions: Homo sapiens, 48 h
A498 = conditions: Homo sapiens, A498, 48 h; for CC50: read-out: LC50
CCRF-CEM = conditions: Homo sapiens, 48 h; for CC50: read-out: LC50
HCC-2998 = conditions: Homo sapiens, HCC 2998, 48 h; for CC50: read-out: LC50
PC-3 = conditions: Homo sapiens, PC-3, 48 h; for CC50: read-out: LC50
SNB-19 = conditions: Homo sapiens, SNB-19, 48 h; for CC50: read-out: LC50
COLO 205 = conditions: Homo sapiens, COLO 205, 48 h; for CC50: read-out: LC50
M14 = conditions: Homo sapiens, M14, 48 h; for CC50: read-out: LC50
CAKI-1 = conditions: Homo sapiens, CAKI-1, 48 h; for CC50: read-out: LC50
UACC-257 = conditions: Homo sapiens, UACC-257, 48 h; for CC50: read-out: LC50
KM12 = conditions: Homo sapiens, KM12, 48 h; for CC50: read-out: LC50
LOX IMVI = conditions: Homo sapiens, 48 h; for CC50: read-out: LC50, LOX IMVI, 48 h
MDA-MB-468 = conditions: Homo sapiens, MDA-MB-468, 48 h; for CC50: read-out: LC50
SK-MEL-5 = conditions: Homo sapiens, SK-MEL-5, 48 h; for CC50: read-out: LC50
UACC-62 = conditions: Homo sapiens, UACC-62, 48 h; for CC50: read-out: LC50
EKVX = conditions: Homo sapiens, 48 h; for CC50: read-out: LC50
HT29 = conditions: Homo sapiens, HT-29, 48 h; for CC50: read-out: LC50
UO-31 = conditions: Homo sapiens, UO-31, 48 h; for CC50: read-out: LC50
SK-MEL-28 = conditions: Homo sapiens, SK-MEL-28, 48 h; for CC50: read-out: LC50
HOP-92 = conditions: Homo sapiens, HOP-92, 48 h; for CC50: read-out: LC50

With `Nc1nc(N)c2c(n1)NC(c1ccc(Cl)cc1)CC(c1ccc(Nc3nc(NCCO)nc(Nc4ccc(Cl)cc4)n3)cc1)=N2` (centres unmarked) [33e] the GI50 (A549/ATCC) was 4.12 µM, the CC50 (A549/ATCC) was greater than 100 µM and the GI50 (HL-60(TB)) was 1.15 µM. For the same compound, the CC50 (HL-60(TB)) was greater than 100 µM, the GI50 (T-47D) was 1.71 µM and the CC50 (T-47D) was 54.6 µM. The GI50 (U251) was 1.47 µM, the CC50 (U251) was 5.81 µM and the GI50 (NCI-H460) was 1.72 µM. It also gave a CC50 (NCI-H460) of 6.42 µM, a GI50 (MOLT-4) of 0.79 µM and a CC50 (MOLT-4) greater than 100 µM. It also gave a GI50 (HS 578T) of 2.22 µM, a CC50 (HS 578T) greater than 100 µM and a GI50 (SK-MEL-2) of 1.45 µM. The CC50 (SK-MEL-2) was 5.53 µM, the GI50 (SF-268) was 4.14 µM and the CC50 (SF-268) was greater than 100 µM. For the same compound, the GI50 (786-0) was 1.55 µM, the CC50 (786-0) was 5.96 µM and the GI50 (HCT-116) was 1.4 µM. The CC50 (HCT-116) was 5.19 µM, the GI50 (NCI-H522) was 1.56 µM and the CC50 (NCI-H522) was 6.41 µM. The GI50 (SNB-75) was 1.59 µM, the CC50 (SNB-75) was 9.94 µM and the GI50 (K-562) was 0.71 µM. The CC50 (K-562) was greater than 100 µM, the GI50 (SF-539) was 1.68 µM and the CC50 (SF-539) was 6.56 µM. For the same compound, the GI50 (MDA-MB-231/ATCC) was 1.75 µM, the CC50 (MDA-MB-231/ATCC) was 8.82 µM and the GI50 (SN12C) was 1.95 µM. For the same compound, the GI50 (A498) was 5.9 µM, the CC50 (A498) was 44.5 µM and the GI50 (CCRF-CEM) was 1.14 µM. The CC50 (CCRF-CEM) was greater than 100 µM, the GI50 (HCC-2998) was 1.44 µM and the CC50 (HCC-2998) was 5.36 µM. The GI50 (PC-3) was 1.93 µM, the CC50 (PC-3) was greater than 100 µM and the GI50 (SNB-19) was 1.99 µM. It also gave a CC50 (SNB-19) of 21.4 µM, a GI50 (COLO 205) of 1.51 µM and a CC50 (COLO 205) of 8.55 µM. The GI50 (M14) was 1.9 µM, the CC50 (M14) was 10.5 µM and the GI50 (CAKI-1) was 5.36 µM. For the same compound, the CC50 (CAKI-1) was greater than 100 µM, the GI50 (UACC-257) was 1.91 µM and the CC50 (UACC-257) was 7.32 µM. For the same compound, the GI50 (KM12) was 3.18 µM, the CC50 (KM12) was greater than 100 µM and the GI50 (LOX IMVI) was 1.45 µM. The CC50 (LOX IMVI) was 5.63 µM, the GI50 (MDA-MB-468) was 1.39 µM and the CC50 (MDA-MB-468) was 5.6 µM. For the same compound, the GI50 (SK-MEL-5) was 1.48 µM, the CC50 (SK-MEL-5) was 5.3 µM and the GI50 (UACC-62) was 2.03 µM. For the same compound, the CC50 (UACC-62) was 9.06 µM, the GI50 (EKVX) was 2.01 µM and the CC50 (EKVX) was 28.7 µM. The GI50 (HT29) was 1.7 µM, the CC50 (HT29) was 7.96 µM and the GI50 (UO-31) was 3.1 µM. For the same compound, the CC50 (UO-31) was greater than 100 µM, the GI50 (SK-MEL-28) was 1.73 µM and the CC50 (SK-MEL-28) was 5.61 µM. For the same compound, the GI50 (HOP-92) was 1.29 µM and the CC50 (HOP-92) was 7.54 µM.
`Cc1ccc(C2CC(c3ccc(Nc4nc(NCCO)nc(Nc5ccc(Cl)cc5)n4)cc3)=Nc3c(N)nc(N)nc3N2)cc1` (centres unmarked) [33b] showed a GI50 (A549/ATCC) of 1.74 µM, a CC50 (A549/ATCC) of 6.8 µM and a GI50 (HL-60(TB)) of 1.71 µM. The CC50 (HL-60(TB)) was greater than 100 µM, the GI50 (T-47D) was 1.67 µM and the CC50 (T-47D) was 8.01 µM. For the same compound, the GI50 (U251) was 1.6 µM, the CC50 (U251) was 5.65 µM and the GI50 (NCI-H460) was 1.8 µM. The CC50 (NCI-H460) was 6.41 µM, the GI50 (MOLT-4) was 1.38 µM and the CC50 (MOLT-4) was greater than 100 µM. For the same compound, the GI50 (HS 578T) was 1.79 µM, the CC50 (HS 578T) was greater than 100 µM and the GI50 (SK-MEL-2) was 1.81 µM. It also gave a CC50 (SK-MEL-2) of 6.4 µM, a GI50 (SF-268) of 1.81 µM and a CC50 (SF-268) of 7.35 µM. The GI50 (786-0) was 1.64 µM, the CC50 (786-0) was 5.7 µM and the GI50 (HCT-116) was 1.62 µM. It also gave a CC50 (HCT-116) of 5.45 µM, a GI50 (NCI-H522) of 1.72 µM and a CC50 (NCI-H522) of 7.03 µM. The GI50 (SNB-75) was 1.62 µM, the CC50 (SNB-75) was 6.73 µM and the GI50 (K-562) was 1.34 µM. The CC50 (K-562) was 24.9 µM, the GI50 (SF-539) was 1.57 µM and the CC50 (SF-539) was 5.63 µM. The GI50 (MDA-MB-231/ATCC) was 1.67 µM, the CC50 (MDA-MB-231/ATCC) was 6.37 µM and the GI50 (SN12C) was 1.79 µM. For the same compound, the CC50 (SN12C; read-out: LC50) was 6.39 µM, the GI50 (A498) was 3.85 µM and the CC50 (A498) was 42 µM. The GI50 (CCRF-CEM) was 1.67 µM, the CC50 (CCRF-CEM) was greater than 100 µM and the GI50 (HCC-2998) was 1.55 µM. It also gave a CC50 (HCC-2998) of 5.56 µM, a GI50 (PC-3) of 1.74 µM and a CC50 (PC-3) of 7.43 µM. For the same compound, the GI50 (SNB-19) was 1.57 µM, the CC50 (SNB-19) was 5.75 µM and the GI50 (COLO 205) was 1.67 µM. The CC50 (COLO 205) was 6.09 µM, the GI50 (M14) was 1.84 µM and the CC50 (M14) was 5.99 µM. The GI50 (CAKI-1) was 1.64 µM, the CC50 (CAKI-1) was 5.73 µM and the GI50 (UACC-257) was 1.84 µM. It also gave a CC50 (UACC-257) of 6.54 µM, a GI50 (KM12) of 1.97 µM and a CC50 (KM12) of 7.54 µM. It also gave a GI50 (LOX IMVI) of 1.65 µM, a CC50 (LOX IMVI) of 5.69 µM and a GI50 (MDA-MB-468) of 1.65 µM. The CC50 (MDA-MB-468) was 6.09 µM, the GI50 (SK-MEL-5) was 1.56 µM and the CC50 (SK-MEL-5) was 5.43 µM. For the same compound, the GI50 (UACC-62) was 1.82 µM, the CC50 (UACC-62) was 6.33 µM and the GI50 (EKVX) was 1.55 µM. The CC50 (EKVX) was 5.71 µM, the GI50 (HT29) was 1.78 µM and the CC50 (HT29) was 7.14 µM. The GI50 (UO-31) was 1.64 µM, the CC50 (UO-31) was 5.51 µM and the GI50 (SK-MEL-28) was 1.77 µM. It also gave a CC50 (SK-MEL-28) of 5.65 µM, a GI50 (HOP-92) of 1.3 µM and a CC50 (HOP-92) of 6.3 µM.

From paper PMC11012124, “Synthesis of Novel Triazine-Based Chalcones and 8,9-dihydro-7H-pyrimido[4,5-b][1,4]diazepines as Potential Leads in the Search of Anticancer, Antibacterial and Antifungal Agents” (International Journal of Molecular Sciences, 2024)
